Drawing on ChEMBL document CHEMBL1124620, “New 1,4-dihydropyridine derivatives combining calcium antagonism and alpha-adrenolytic properties” (J Med Chem, 1989), this text covers IC50 for 9 compounds.

Some results are limits rather than exact numbers.

For one assay, the species on record is Rattus norvegicus. Put plainly: Calcium antagonistic activity was evaluated by in vitro inhibition of [3H]nitrendipine binding on rat cerebral cortex. The format is functional.
The species named for another assay is Sus scrofa. Put plainly: Calcium antagonistic activity was evaluated from the inhibition of CaCl2-induced contraction of depolarized pig coronary artery. The format is functional.
For assay [1], the target named is T1, Adrenergic receptor alpha-1 (Rattus norvegicus, UniProt P15823+P23944+P43140).
T1 sequence (P15823 whole entry): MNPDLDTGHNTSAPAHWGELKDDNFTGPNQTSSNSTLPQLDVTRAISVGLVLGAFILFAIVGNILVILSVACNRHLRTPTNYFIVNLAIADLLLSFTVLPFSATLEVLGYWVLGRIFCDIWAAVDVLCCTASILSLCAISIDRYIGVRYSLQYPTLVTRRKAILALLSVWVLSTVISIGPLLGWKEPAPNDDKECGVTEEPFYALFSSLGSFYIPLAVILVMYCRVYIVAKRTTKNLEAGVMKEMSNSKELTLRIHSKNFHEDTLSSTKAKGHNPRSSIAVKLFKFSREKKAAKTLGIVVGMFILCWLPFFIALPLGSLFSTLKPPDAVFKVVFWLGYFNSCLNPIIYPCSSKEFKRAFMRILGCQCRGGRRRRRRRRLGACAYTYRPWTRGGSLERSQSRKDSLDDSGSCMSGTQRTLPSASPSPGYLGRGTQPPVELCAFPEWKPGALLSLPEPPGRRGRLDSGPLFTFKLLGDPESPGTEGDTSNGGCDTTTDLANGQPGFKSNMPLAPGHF
T1 sequence (P23944 whole entry): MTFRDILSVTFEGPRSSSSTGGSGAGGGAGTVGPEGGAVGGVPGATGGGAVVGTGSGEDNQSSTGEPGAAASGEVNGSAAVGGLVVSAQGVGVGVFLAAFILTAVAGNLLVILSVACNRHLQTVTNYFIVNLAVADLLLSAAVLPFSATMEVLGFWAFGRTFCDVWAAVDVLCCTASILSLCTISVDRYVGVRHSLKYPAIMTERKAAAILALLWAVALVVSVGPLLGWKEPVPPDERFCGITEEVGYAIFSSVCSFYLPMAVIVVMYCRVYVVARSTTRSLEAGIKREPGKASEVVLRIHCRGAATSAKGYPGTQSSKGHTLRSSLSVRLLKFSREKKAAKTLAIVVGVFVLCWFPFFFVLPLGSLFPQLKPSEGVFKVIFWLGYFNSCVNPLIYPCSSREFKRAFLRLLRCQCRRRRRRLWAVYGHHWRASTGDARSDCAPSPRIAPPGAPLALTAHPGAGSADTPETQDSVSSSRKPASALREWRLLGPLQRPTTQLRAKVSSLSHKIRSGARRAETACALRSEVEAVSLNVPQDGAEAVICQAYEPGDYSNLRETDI
T1 sequence (P43140 whole entry): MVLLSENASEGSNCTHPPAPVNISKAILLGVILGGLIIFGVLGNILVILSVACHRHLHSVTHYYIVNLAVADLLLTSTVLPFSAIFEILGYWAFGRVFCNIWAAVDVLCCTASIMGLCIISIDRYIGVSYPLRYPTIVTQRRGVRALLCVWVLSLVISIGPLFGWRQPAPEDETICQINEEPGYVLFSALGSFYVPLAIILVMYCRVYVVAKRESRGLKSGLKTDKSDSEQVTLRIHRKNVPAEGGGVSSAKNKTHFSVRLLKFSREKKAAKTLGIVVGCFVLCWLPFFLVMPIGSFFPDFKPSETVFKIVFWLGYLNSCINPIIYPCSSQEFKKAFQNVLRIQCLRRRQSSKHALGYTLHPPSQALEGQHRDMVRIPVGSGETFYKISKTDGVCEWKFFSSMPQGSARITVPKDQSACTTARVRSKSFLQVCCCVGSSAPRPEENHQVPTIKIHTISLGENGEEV
Put plainly: Alpha-1-adrenolytic activity was assessed in vitro from the ability to inhibit norepinephrine-induced contraction of rat aorta preparation.

Assay [2] concerns the target T1, Adrenergic receptor alpha-1. Put plainly: Alpha-1-adrenolytic activity was assessed from the ability to inhibit [3H]prazosin binding to rat cerebral cortex preparation. The assay is classed as tissue-based.
The target in assay [3] is T2, Adrenergic receptor alpha-2 (Rattus norvegicus, UniProt P22086+P19328+P22909).
T2 sequence (P22086 whole entry): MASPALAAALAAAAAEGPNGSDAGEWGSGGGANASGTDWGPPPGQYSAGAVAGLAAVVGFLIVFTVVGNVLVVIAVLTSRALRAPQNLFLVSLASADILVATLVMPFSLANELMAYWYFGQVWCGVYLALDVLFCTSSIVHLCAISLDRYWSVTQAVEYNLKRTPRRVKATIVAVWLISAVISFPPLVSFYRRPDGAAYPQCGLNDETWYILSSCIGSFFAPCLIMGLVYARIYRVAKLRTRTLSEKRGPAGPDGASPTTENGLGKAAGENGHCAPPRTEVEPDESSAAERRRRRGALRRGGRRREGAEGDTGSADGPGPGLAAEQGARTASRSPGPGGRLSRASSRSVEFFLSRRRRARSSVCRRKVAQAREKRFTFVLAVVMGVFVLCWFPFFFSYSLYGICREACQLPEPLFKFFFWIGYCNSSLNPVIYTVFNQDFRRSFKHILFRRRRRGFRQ
T2 sequence (P19328 whole entry): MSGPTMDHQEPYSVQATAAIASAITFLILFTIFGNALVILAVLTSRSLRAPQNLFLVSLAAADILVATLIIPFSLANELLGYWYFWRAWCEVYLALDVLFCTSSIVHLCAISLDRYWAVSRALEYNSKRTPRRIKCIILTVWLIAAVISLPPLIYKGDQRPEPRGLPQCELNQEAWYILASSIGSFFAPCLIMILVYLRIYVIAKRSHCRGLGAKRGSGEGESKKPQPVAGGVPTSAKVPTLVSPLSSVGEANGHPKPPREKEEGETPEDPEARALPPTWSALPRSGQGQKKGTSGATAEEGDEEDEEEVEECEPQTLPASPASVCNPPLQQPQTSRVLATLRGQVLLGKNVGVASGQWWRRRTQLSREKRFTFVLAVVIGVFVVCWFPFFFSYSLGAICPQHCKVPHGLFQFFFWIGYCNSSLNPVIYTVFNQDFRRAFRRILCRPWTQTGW
T2 sequence (P22909 whole entry): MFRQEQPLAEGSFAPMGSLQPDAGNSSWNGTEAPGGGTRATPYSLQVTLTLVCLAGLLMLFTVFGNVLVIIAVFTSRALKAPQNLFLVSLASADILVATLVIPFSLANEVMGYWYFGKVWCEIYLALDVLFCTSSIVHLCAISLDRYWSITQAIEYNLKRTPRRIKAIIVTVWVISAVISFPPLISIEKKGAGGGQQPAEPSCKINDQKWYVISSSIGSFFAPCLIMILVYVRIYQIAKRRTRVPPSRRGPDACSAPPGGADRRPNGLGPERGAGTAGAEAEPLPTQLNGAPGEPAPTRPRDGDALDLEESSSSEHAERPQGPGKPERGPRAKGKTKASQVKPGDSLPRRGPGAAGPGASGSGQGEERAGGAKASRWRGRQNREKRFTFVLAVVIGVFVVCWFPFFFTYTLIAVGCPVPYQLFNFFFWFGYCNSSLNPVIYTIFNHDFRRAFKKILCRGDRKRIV
Put plainly: Ability to inhibit [3H]yohimbine binding to alpha-2 adrenergic receptor of rat cerebral cortex preparation. The assay is classed as tissue-based.

The mark [4] stands for this setting: Rattus norvegicus, Cerebral cortex, 90 min.

As usually defined, the IC50 is the point on the concentration scale where inhibition reaches its midpoint. With `CO/C(O)=C1\C(C)=NC(C)=C(C(=O)OCCN2CCC(n3c(O)nc4ccccc43)CC2)C1c1cccc([N+](=O)[O-])c1` (centres undefined), the IC50 was found to be 0.6 nM in the assay listed under Rattus norvegicus (setting [4]); 1000 nM in the assay filed under Sus scrofa (Sus scrofa, Coronary artery); 0.00001 M in assay [1]; 41 nM in assay [2]; 1600 nM in assay [3].
As to `CO/C(O)=C1\C(C)=NC(C)=C(C(=O)OCCN(C)CC2COc3ccccc3O2)C1c1ccccc1[N+](=O)[O-]` (centres undefined), the IC50 in the assay listed under Rattus norvegicus (setting [4]) was 0.07 nM; in the assay filed under Sus scrofa (Sus scrofa, Coronary artery), 4 nM; in assay [1], > 0.00001 M; in assay [2], 300 nM; in assay [3], 270 nM.
As for `CO/C(O)=C1\C(C)=NC(C)=C(C(=O)OCCN(C)C(C)COc2ccccc2)C1c1cccc([N+](=O)[O-])c1.Cl` (centres undefined), the IC50 in the assay filed under Rattus norvegicus (setting [4]) turned out to be 0.073 nM; in the assay listed under Sus scrofa (Sus scrofa, Coronary artery) it was 13 nM; in assay [1], 0.00007 M; in assay [2], 380 nM; in assay [3], 480 nM.
With `CC1=NC(C)=C(C(=O)OC(C)CN(C)CC2COc3ccccc3O2)C(c2cccc([N+](=O)[O-])c2)/C1=C(\O)OC(C)C.Cl` (centres undefined), the IC50 in the assay listed under Rattus norvegicus is 3.4 nM; in the assay listed under Sus scrofa (Sus scrofa, Coronary artery), 150 nM; in assay [1], >> 0.00003 M; in assay [2], 3900 nM.
`CO/C(O)=C1\C(C)=NC(C)=C(C(=O)OC(C)CN(C)CC2COc3ccccc3O2)C1c1cccc([N+](=O)[O-])c1.Cl` (centres undefined): the IC50 in the assay filed under Rattus norvegicus (setting [4]) was 0.05 nM; in the assay listed under Sus scrofa (Sus scrofa, Coronary artery), 3.8 nM; in assay [1], >> 0.0001 M; in assay [2], 1000 nM; in assay [3], 470 nM.
The corresponding values for `CO/C(O)=C1\C(C)=NC(C)=C(C(=O)OCCN(C)C(c2ccccc2)C2CCCCC2)C1c1cccc([N+](=O)[O-])c1.Cl` (centres undefined) are 3.8 nM, > 10000 nM, > 0.0001 M, 75000 nM and 16000 nM.
On to `CO/C(O)=C1\C(C)=NC(C)=C(C(=O)OCCN(C)CC2COc3ccccc3O2)C1c1cccc([N+](=O)[O-])c1.Cl` (centres undefined), for which the IC50 in the assay listed under Rattus norvegicus (setting [4]) is 0.1 nM; in the assay filed under Sus scrofa (Sus scrofa, Coronary artery) it was 4.5 nM; in assay [1] it was 0.00004 M; in assay [2], 500 nM; in assay [3], 480 nM.
Consider `COC(=O)C1=C(C)NC(C)=C(C(=O)OCCN(C)C[C@H]2COc3ccccc3O2)[C@@H]1c1cccc([N+](=O)[O-])c1.Cl` (stereo in doubt; 6a), for which the IC50 was 0.018 nM in the assay listed under Rattus norvegicus; 1.5 nM in the assay filed under Sus scrofa; 0.00001 M in assay [1]; 2400 nM in assay [2]; 4000 nM in assay [3].
Turning to `COC(=O)C1=C(C)NC(C)=C(C(=O)OCCN(C)C[C@H]2COc3ccccc3O2)[C@@H]1c1cccc([N+](=O)[O-])c1.Cl` (stereo in doubt; 6b), the IC50 in the assay filed under Rattus norvegicus was 2.8 nM; in the assay listed under Sus scrofa it was 10 nM; in assay [1], > 0.00003 M; in assay [2], 2300 nM; in assay [3] it was 140 nM.
